Read-outs that look alike come from different tables or passages of the source.
Tests used:
[1] = system: NS5A chimeric genotype 2a JFH-1 replicon with genotype 2b MD2b-1 strain NS5A gene (M31 present); assay: Replicon assay, genotype 2b NS5A chimera; format: cell-based, HCV; conditions: Hepatitis C virus
Procedure, shortened: (§1)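 Cells carrying the stable or transiently transfected (Huh-Lunet) dicistronic RLuc replicons received 3-fold serial compound dilutions from 10 mM DMSO stocks. After 72 h, cells were lysed and Renilla luciferase read. DMSO served as the no-inhibition control and ITMN-191 above 100×EC50 as the positive control; EC50 by non-linear regression.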

[2] = system: NS5A chimeric genotype 2a JFH-1 replicon with genotype 2a J6 strain NS5A gene (M31 present); assay: Replicon assay, genotype 2a J6 NS5A chimera; format: cell-based, HCV; conditions: Hepatitis C virus
Procedure, shortened: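 EC50 was fitted by non-linear regression to Renilla luciferase signal after 72 h of exposure to 3-fold serially diluted compound (10 mM DMSO stocks). Controls were DMSO (none) and ITMN-191 above 100×EC50 (full). Chimeric 2a replicons were used either stable or transiently transfected into Huh-Lunet cells.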

[3] = system: NS5A chimeric genotype 1b Con1 replicon with genotype 3a S52 strain NS5A gene; assay: Replicon assay, genotype 3a NS5A chimera; format: cell-based, HCV; conditions: Hepatitis C virus
[4] = system: stable HCV 1a RLuc replicon cells (dicistronic genotype 1a H77 replicon); assay: Renilla luciferase HCV replicon reporter assay, genotype 1a; format: cell-based; conditions: Hepatitis C virus, 72 h, stable 1a H77 RLuc replicon cells
Procedure, shortened: as §1

[5] = IV and PO single dose pharmacokinetic studies in SD rats; format: in vivo, male Sprague-Dawley (SD) rats; conditions: Sprague-Dawley, rat, plasma, male SD rats, PO 2 mg/kg vs IV infusion 1 mg/kg, read-out: Rat % F
Procedure: IV and PO Single Dose Pharmacokinetic Studies in SD Rats:
The pharmacokinetics of selected compounds was characterized in male Sprague-Dawley (SD) rats (250-300g). In this study, two groups of naïve purebred SD rats (N=3 per group, fasted over night) received the selected compound either as an intravenous (IV) infusion (1 mg/kg over 30 minutes) via the jugular vein or by oral gavage (2 mg/kg). The intravenous (IV) dosing vehicle was 5% ethanol, 35% polyethylene glycol 400 (PEG 400) and 60% water pH 2.0. The oral dosing vehicle was 5% ethanol, 55% PEG 400 and 40% citrate buffer pH 2.2.
Serial blood samples (approximately 0.3 mL each) were collected from jugular vein or other suitable vein at specified time points. For the IV infusion group, the blood samples were collected predose and at 0.25, 0.48, 0.58, 0.75, 1.5, 3, 6, 8, 12 and 24 hours after the start of infusion. For the oral group, the blood samples were collected predose and at 0.25, 0.50, 1, 2, 4, 6, 8, 12 and 24 hours after dosing. The blood samples were collected into VacutainerγM tubes containing EDTA-K3 as the anti-coagulant and were centrifuged at approximately 4° C. to obtain plasma. The plasma samples were stored at −20° C. until analysis by LC/MS/MS.
A bioanalytical method utilizing high performance liquid chromatography coupled to tandem mass spectrometry (LC/MS/MS) was developed for analysis of the selected compound in rat plasma. Detection was performed using selected reaction monitoring (SRM); Ions representing the precursor (M+H)^+ species was selected in quadrupole 1 (Q1) and collided with argon gas in the collision cell (Q2) to generate specific product ion, which was subsequently monitored by quadrupole 3 (Q3). Standard curve and quality control samples were prepared in male rat plasma and processed in the same way as the test samples to generate quantitative data.
Pharmacokinetic parameters were generated using non-compartmental pharmacokinetic analysis (Phoenix WinNonlin, version 6.3). Values below the lower limit of quantification (LLOQ) were assigned a value of zero if predose and treated as missing thereafter. Area under the curve (AUC) was calculated using the linear trapezoidal rule. The oral bioavailability (% F) was determined by comparison of the area under the curve (AUC) of the compound and/or a metabolite generated in plasma following oral administration to that generated following intravenous administration.

[6] = system: stable HCV 2a JFH-1 Rluc replicon cells (L31 present in NS5A); assay: Renilla luciferase HCV replicon reporter assay, genotype 2a JFH-1; format: cell-based; conditions: Hepatitis C virus
Procedure, shortened: as §1

[7] = system: NS5A chimeric genotype 1b Con1 replicon with genotype 4a ED43 strain NS5A gene; assay: Replicon assay, genotype 4a NS5A chimera; format: cell-based, HCV; conditions: Hepatitis C virus
[8] = system: stable HCV 1b RLuc replicon cells (dicistronic genotype 1b Con1 replicon); assay: Renilla luciferase HCV replicon reporter assay, genotype 1b; format: cell-based; conditions: Hepatitis C virus, 72 h, stable 1b Con1 RLuc replicon cells, 72 hours; read-out: 1b
Procedure, shortened: as §1

[9] = 2BS, read-out: 2b (s), stably replicating replicon cells (s), activity range
[10] = read-out: 2b (s) (nM), genotype 2b MD2b-1 NS5A chimeric replicon (M31), stably replicating replicon cells (s)
[11] = read-out: 2a J6 (t) (nM), genotype 2a J6 NS5A chimeric replicon (M31), transiently transfected (t) into Huh-Lunet cells
[12] = read-out: 2a J6 (t), transiently transfected (t) into Huh-Lunet cells, activity range
[13] = read-out: 3a (s) (nM), genotype 3a NS5A chimeric replicon, stable replicon cells (s)
[14] = read-out: 3a (s), (s), activity range
[15] = read-out: 2a JFH (nM), genotype 2a JFH-1 replicon (L31 in NS5A), stable cells
[16] = read-out: 2a JFH, stable 2a JFH-1 Rluc replicon cells, L31 in NS5A, activity range
[17] = read-out: 4a (s) (nM), genotype 4a NS5A chimeric replicon, stable replicon cells (s)
[18] = read-out: 4a (s), (s), activity range

| SMILES | EC50 [1, 9] [nM] | EC50 [1, 10] [nM] | EC50 [2, 11] [nM] | EC50 [2, 12] [nM] | EC50 [3, 13] [nM] | EC50 [3, 14] [nM] | EC50 [4] [nM] | EC50 ([4]; activity range) [nM] | bioavailability [5] [%] | EC50 [6, 15] [nM] | EC50 [6, 16] [nM] | EC50 [7, 17] [nM] | EC50 [7, 18] [nM] | EC50 [8] [nM] | EC50 ([2]; read-out: 2a J6 (s) (nM), genotype 2a J6 NS5A chimeric replicon (M31), stably replicating replicon cells (s)) [nM] | EC50 ([2]; read-out: 2a J6 (s), stably replicating replicon cells (s), activity range) [nM] | EC50 ([3]; read-out: 3a (t) (nM), genotype 3a NS5A chimeric replicon, transiently transfected (t)) [nM] | EC50 ([3]; read-out: 3a (t), transiently transfected (t) into Huh-Lunet cells, activity range) [nM] | EC50 ([1]; read-out: 2b (t) (nM), genotype 2b MD2b-1 NS5A chimeric replicon (M31), transiently transfected (t)) [nM] | EC50 ([1]; read-out: 2b (t), transiently transfected (t) into Huh-Lunet cells, activity range) [nM] |
| --- | --- | --- | --- | --- | --- | --- | --- | --- | --- | --- | --- | --- | --- | --- | --- | --- | --- | --- | --- | --- |
| CC[C@H]1CC[C@@H](c2ncc(-c3ccc4c(c3)COc3cc5c(ccc6nc([C@@H]7CC[C@H](CC)N7C(=O)[C@@H](NC(=O)OC)C7CCOCC7)[nH]c65)cc3-4)[nH]2)N1C(=O)[C@@H](NC(=O)OC)C(C)C [IG] | 0.1 to 0.999 | 0.25 | 0.122 | 0.1 to 0.999 | 0.787 | 0.1 to 0.999 | 0.027 | < 0.1 | 28.2 | 0.034 | < 0.1 | 0.025 | < 0.1 | 0.035 |  |  |  |  |  |  |
| COC(=O)N[C@H](C(=O)N1C[C@@H](C)C[C@H]1c1nc2ccc3cc4c(cc3c2[nH]1)OCc1cc(-c2cnc([C@@H]3CC[C@H](C)N3C(=O)[C@@H](NC(=O)OC)[C@@H](C)OC)[nH]2)ccc1-4)C(C)C [GA] | 0.1 to 0.999 | 0.245 | 0.064 | < 0.1 | 0.063 | < 0.1 | 0.019 | < 0.1 | 3.2 | 0.018 | < 0.1 | 0.016 | < 0.1 | 0.035 |  |  |  |  |  |  |
| COC(=O)N[C@H](C(=O)N1[C@H](c2ncc(-c3ccc4c(c3)COc3cc5c(ccc6nc([C@@H]7C[C@@H]8CCC[C@@H]8N7C(=O)[C@@H](NC(=O)OC)C7CCOCC7)[nH]c65)cc3-4)[nH]2)C[C@@H]2CCC[C@@H]21)C(C)C [IT] | < 0.1 | 0.064 |  |  | 0.032 | < 0.1 | 0.012 | < 0.1 | 16.2 | 0.017 | < 0.1 | 0.004 | < 0.1 | 0.017 | 0.007 | < 0.1 |  |  |  |  |
| COC(=O)N[C@H](C(=O)N1[C@@H](C)CC[C@H]1c1ncc(-c2ccc3c(c2)COc2cc4c(ccc5nc([C@@H]6C[C@H](C)CN6C(=O)[C@@H](NC(=O)OC)C6CCOCC6)[nH]c54)cc2-3)[nH]1)C(C)C [EI, methyl[(1 S)-2-[(2S,4S)-2-(9-{2-[(2S,5S)-1-{(2S)-2-[(methoxycarbonyl)amino]-3-methylbutanoyl}-5-methylpyrrolidin-2-yl]-1H-imidazol-5-yl}-1,11 dihydroisochromeno[4′,3′:6,7]naphtho[1,2-d]imidazol-2-yl)-4-methylpyrrolidin-1-yl]-2-oxo-1-(tetra hydro-2H-pyran-4-yl)ethyl]carbamate] | < 0.1 | 0.048 | 0.022 | < 0.1 | 0.077 | < 0.1 | 0.025 | < 0.1 | 4.4 | 0.033 | < 0.1 | 0.02 | < 0.1 | 0.048 |  |  | 0.074 | < 0.1 |  |  |
| CC[C@H](C)[C@H](NC(=O)OC)C(=O)N1[C@@H](C)CC[C@H]1c1ncc(-c2ccc3c(c2)COc2cc4c(ccc5nc([C@@H]6CC[C@H](C)N6C(=O)[C@@H](NC(=O)OC)[C@@H](C)OC)[nH]c54)cc2-3)[nH]1 [GF, Methyl {(2S,3S)-1-[(2S,5S)-2-(5-{2-[(2S,5S)-1-{(2S,3R)-3-methoxy-2-[(methoxycarbonyl)amino]butanoyl}-5-methylpyrrolidin-2-yl]-1,11-dihydroisochromeno[4′,3′:6,7]naphtho[1,2-d]imidazol-9-yl}-1H-imidazol-2-yl)-5-methylpyrrolidin-1-yl]-3-methyl-1-oxopentan-2-yl}carbamate] | 0.1 to 0.999 | 0.203 |  |  | 0.027 | < 0.1 | 0.007 | < 0.1 | 15.6 | 0.018 | < 0.1 | 0.011 | < 0.1 | 0.015 |  |  |  |  |  |  |
| COC(=O)NC(C(=O)N1[C@@H](C)CC[C@H]1c1nc2ccc3cc4c(cc3c2[nH]1)OCc1cc(-c2cnc([C@@H]3CC[C@H](C)N3C(=O)[C@@H](NC(=O)OC)C3CCOCC3)[nH]2)ccc1-4)C(C)C (stereo partly drawn) [EA, Methyl(1-{(2S,5S)-2-[9-(2-{(2S,5S)-1-[(2S)-2-[(methoxycarbonyl)amino]-2-(tetra hydro-2H-pyran-4-yl)acetyl]-5-methylpyrrolidin-2-yl}-1H-imidazol-5-yl)-1,11-dihydroisochromeno[4′,3′:6,7]naphtho[1,2-d]imidazol-2-yl]-5-methylpyrrolidin-1-yl}-3-methyl-1-oxobutan-2-yl)carbamate] | < 0.1 | 0.088 | 0.035 | < 0.1 | 0.035 | < 0.1 | 0.018 | < 0.1 | 10.2 | 0.015 | < 0.1 | 0.019 | < 0.1 | 0.028 |  |  |  |  | 0.037 | < 0.1 |
| CC[C@H]1CC[C@@H](c2ncc(-c3ccc4c(c3)COc3cc5c(ccc6nc([C@@H]7CC[C@H](CC)N7C(=O)[C@@H](NC(=O)OC)C7CCOCC7)[nH]c65)cc3-4)[nH]2)N1C(=O)[C@@H](NC(=O)OC)C1CCOCC1 [IE] | < 0.1 | 0.065 | 0.042 | < 0.1 | 0.198 | 0.1 to 0.999 | 0.042 | < 0.1 | 2.2 | 0.035 | < 0.1 | 0.039 | < 0.1 | 0.054 |  |  |  |  |  |  |

From patent US10800789B2, “Antiviral compounds” (Gilead Pharmasset LLC, priority 2012, dated 2020)
